In brackets after ≈: the same amount, converted by molar mass.
Experiments:
E. coli DNA gyrase = molecular target: T1, E. coli DNA gyrase (Escherichia coli, UniProt P0AES6); assay: biochemical; conditions: E. coli DNA gyrase; read-out: IC50
T1 construct: purchased Inspiralis
Protocol: Inhibitory activities for compounds of the present invention were determined on E. coli and S. aureus DNA gyrase and topoisomerase IV in an assay from Inspiralis on streptavidin-coated 96-well microtiter plates from Thermo scientific Pierce. […] After washing off the unbound oligonucleotide, the enzyme test was performed. […] Reaction solutions were incubated at 37° C. for 30 min. After that, the TF buffer (50 mM NaOAc with pH 5.0, 50 mM NaCl and 50 mM MgCl2) was added to terminate the enzymatic reaction. After additional incubation for 30 min at rt, during which biotin-oligonucleotide-plasmid triplex was formed, the unbound plasmid was washed off using TF buffer and SybrGOLD in T10 buffer (10 mM Tris HCl with pH 8.0 and 1 mM EDTA) was added. […] GraphPad Prism 6.0 software was used to calculate the IC50 values. The result is given as the average value of three independent measurements. […] Chemoth.

A. baumannii ATCC 17978 = assay: Microbroth dilution MIC (CLSI); assay type: cell-based; conditions: Acinetobacter baumannii, ATCC17978; A. baumannii ATCC 17978; read-out: MIC
Protocol: (§1) The chemical entities described in the present invention were assessed for their antimicrobial activity using a microbroth dilution assay as recommended by the CLSI (Methods for Dilution Antimicrobial Susceptibility Tests for Bacteria That Grow Aerobically, and Methods for Antimicrobial Susceptibility Testing of Anaerobic Bacteria, Clinical and Laboratory Standards Institute, Document M07-A8, and M11-A8, Wayne, PA 19087, USA, 2012.). Compounds were dissolved by using 100% DMSO. Serial two-fold dilutions of each compound were made by using 100% DMSO as the diluent.
(§2) A library of Gram-negative and Gram-positive microbes and their drug- and multidrug-resistant variants were employed as test organisms. The MIC (minimum inhibitory concentration) was determined as the lowest concentration of an individual drug that lead to no visible growth.

E. coli ATCC 25922 = assay: Microbroth dilution MIC (CLSI); assay type: cell-based; conditions: Escherichia coli, ATCC25922; E. coli ATCC 25922; read-out: MIC
Protocol: as §1, §2

E. faecalis ATCC 29212 = assay: Microbroth dilution MIC (CLSI); assay type: cell-based; conditions: Enterococcus faecalis, ATCC29212; E. faecalis ATCC 29212; read-out: MIC
Protocol: as §1, §2

E. faecium ATCC 700221 = assay: Microbroth dilution MIC (CLSI); assay type: cell-based; conditions: Enterococcus faecium, ATCC700221; E. faecium ATCC 700221; read-out: MIC
Protocol: as §1, §2

[1] = tested on: E. spp. cloacae ATCC 13047; assay: Microbroth dilution MIC (CLSI); assay type: cell-based; conditions: Enterobacter cloacae, ATCC13047; E. spp. cloacae ATCC 13047; read-out: MIC
Protocol: as §1, §2

K. pneumoniae ATCC 10031 = assay: Microbroth dilution MIC (CLSI); assay type: cell-based; conditions: Klebsiella pneumoniae, ATCC10031; K. pneumoniae ATCC 10031; read-out: MIC
Protocol: as §1, §2

P. aeruginosa ATCC 27853 = assay: Microbroth dilution MIC (CLSI); assay type: cell-based; conditions: Pseudomonas aeruginosa, ATCC27853; P. aeruginosa ATCC 27853; read-out: MIC
Protocol: as §1, §2

S. aureus ATCC 29213 = assay: Microbroth dilution MIC (CLSI); assay type: cell-based; conditions: Staphylococcus aureus, ATCC29213; S. aureus ATCC 29213; read-out: MIC
Protocol: as §1, §2

[2] = tested on: S. aureus ATCC 43300 (MRSA); assay: Microbroth dilution MIC (CLSI); assay type: cell-based; conditions: Staphylococcus aureus; S. aureus ATCC 43300 (MRSA); read-out: MIC
Protocol: as §1, §2

[3] = tested on: S. aureus ATCC 700699 (VISA); assay: Microbroth dilution MIC (CLSI); assay type: cell-based; conditions: Staphylococcus aureus; S. aureus ATCC 700699 (VISA); read-out: MIC
Protocol: as §1, §2

E. coli topoisomerase IV = molecular target: T2, E. coli topoisomerase IV (Escherichia coli, UniProt P20083); assay: biochemical; conditions: E. coli topo IV, read-out: RA (residual activity of the enzyme); for remaining activity at 1 µM: 1 μM compound; for remaining activity at 10 µM: 10 μM compound
T2 construct: purchased Inspiralis
T2 sequence (P0AFI2 whole entry): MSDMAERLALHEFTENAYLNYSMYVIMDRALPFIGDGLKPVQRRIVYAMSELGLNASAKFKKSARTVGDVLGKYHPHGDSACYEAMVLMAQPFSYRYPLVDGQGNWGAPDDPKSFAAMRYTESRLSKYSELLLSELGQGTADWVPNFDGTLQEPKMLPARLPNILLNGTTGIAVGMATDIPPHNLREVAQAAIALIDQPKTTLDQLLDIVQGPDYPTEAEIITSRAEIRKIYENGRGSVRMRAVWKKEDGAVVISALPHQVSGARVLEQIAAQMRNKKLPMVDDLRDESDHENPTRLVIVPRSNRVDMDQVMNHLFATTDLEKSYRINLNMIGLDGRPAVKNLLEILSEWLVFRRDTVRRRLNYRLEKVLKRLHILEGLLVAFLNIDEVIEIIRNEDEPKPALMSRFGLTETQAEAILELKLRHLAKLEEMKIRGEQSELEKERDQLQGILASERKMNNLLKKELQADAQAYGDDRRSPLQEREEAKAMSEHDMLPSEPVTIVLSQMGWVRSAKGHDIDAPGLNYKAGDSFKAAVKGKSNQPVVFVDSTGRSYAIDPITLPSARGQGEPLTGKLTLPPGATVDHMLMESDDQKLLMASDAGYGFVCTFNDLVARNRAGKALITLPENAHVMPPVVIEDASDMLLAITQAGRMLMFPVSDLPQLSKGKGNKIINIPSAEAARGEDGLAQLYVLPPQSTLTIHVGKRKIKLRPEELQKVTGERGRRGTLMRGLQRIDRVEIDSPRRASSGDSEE
T2 sequence (P20083 whole entry): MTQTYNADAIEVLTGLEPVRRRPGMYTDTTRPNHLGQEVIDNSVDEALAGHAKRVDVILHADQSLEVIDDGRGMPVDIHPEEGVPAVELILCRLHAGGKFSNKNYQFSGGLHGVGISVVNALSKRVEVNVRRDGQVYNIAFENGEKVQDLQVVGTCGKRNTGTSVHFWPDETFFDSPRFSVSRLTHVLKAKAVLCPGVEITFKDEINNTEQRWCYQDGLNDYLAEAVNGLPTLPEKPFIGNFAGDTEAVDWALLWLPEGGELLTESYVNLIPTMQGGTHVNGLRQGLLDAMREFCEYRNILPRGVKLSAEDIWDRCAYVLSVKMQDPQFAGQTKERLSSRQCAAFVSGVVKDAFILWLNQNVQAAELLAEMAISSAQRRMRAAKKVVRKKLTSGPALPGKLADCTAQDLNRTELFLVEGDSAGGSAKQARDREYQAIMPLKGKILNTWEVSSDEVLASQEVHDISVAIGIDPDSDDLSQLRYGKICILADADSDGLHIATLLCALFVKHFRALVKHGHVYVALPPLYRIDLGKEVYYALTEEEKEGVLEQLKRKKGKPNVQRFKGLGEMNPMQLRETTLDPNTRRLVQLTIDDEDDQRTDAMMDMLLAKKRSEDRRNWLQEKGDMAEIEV
Protocol: Inhibitory activities for compounds of the present invention were determined on E. coli and S. aureus DNA gyrase and topoisomerase IV in an assay from Inspiralis on streptavidin-coated 96-well microtiter plates from Thermo scientific Pierce. […] After washing off the unbound oligonucleotide, the enzyme test was performed. […] Reaction solutions were incubated at 37° C. for 30 min. After that, the TF buffer (50 mM NaOAc with pH 5.0, 50 mM NaCl and 50 mM MgCl2) was added to terminate the enzymatic reaction. After additional incubation for 30 min at rt, during which biotin-oligonucleotide-plasmid triplex was formed, the unbound plasmid was washed off using TF buffer and SybrGOLD in T10 buffer (10 mM Tris HCl with pH 8.0 and 1 mM EDTA) was added. […] Initial screening was done at 100 or 10 nM concentration of inhibitors against E. coli DNA gyrase or 1 μM or 100 nM concentration against S. aureus DNA gyrase and E. coli and S. aureus topo IV. […] GraphPad Prism 6.0 software was used to calculate the IC50 values. The result is given as the average value of three independent measurements. […] Chemoth.

Cc1[nH]c(C(=O)Nc2ccc(-c3n[nH]c(=O)o3)cc2OCc2cccs2)c(Cl)c1Cl [Example 33, 3,4-Dichloro-5-methyl-N-(4-(5-oxo-4,5-dihydro-1,3,4-oxadiazol-2-yl)-2-(thiophen-2-ylmethoxy)phenyl)-1H-pyrrole-2-carboxamide]
IC50 (E. coli DNA gyrase): 3740 nM

Cc1[nH]c(C(=O)Nc2ccc(C(=O)O)cc2N2CCN(c3ccccc3)CC2)c(Cl)c1Cl [Example 16, 4-(3,4-Dichloro-5-methyl-1H-pyrrole-2-carboxamido)-3-(4-phenylpiperazin-1-yl)benzoic acid]
IC50 (E. coli DNA gyrase): 199 nM
MIC (A. baumannii ATCC 17978): > 64 µg/mL
MIC (E. coli ATCC 25922): > 64 µg/mL
MIC (E. faecalis ATCC 29212): > 64 µg/mL
MIC (E. faecium ATCC 700221): > 64 µg/mL
MIC [1]: > 64 µg/mL
MIC (K. pneumoniae ATCC 10031): > 64 µg/mL
MIC (P. aeruginosa ATCC 27853): > 64 µg/mL
MIC (S. aureus ATCC 29213): > 64 µg/mL
MIC [2]: > 64 µg/mL
MIC [3]: > 64 µg/mL

Cc1[nH]c(C(=O)Nc2ccc(-c3n[nH]c(=O)o3)cc2N2CC(C)OC(C)C2)c(Cl)c1Cl (centres unmarked) [Example 44, 3,4-dichloro-N-(2-(2,6-dimethylmorpholino)-4-(5-oxo-4,5-dihydro-1,3,4-oxadiazol-2-yl)phenyl)-5-methyl-1H-pyrrole-2-carboxamide]
IC50 (E. coli DNA gyrase): 109 nM
remaining activity at 1 µM (E. coli topoisomerase IV): 105%
remaining activity at 10 µM (E. coli topoisomerase IV): 105%

Cc1[nH]c(C(=O)Nc2ccc(-c3n[nH]c(=O)o3)cc2N2CCOC(C)C2)c(Cl)c1Cl (centres unmarked) [Example 43, 3,4-Dichloro-5-methyl-N-(2-(2-methylmorpholino)-4-(5-oxo-4,5-dihydro-1,3,4-oxadiazol-2-yl)phenyl)-1H-pyrrole-2-carboxamide]
IC50 (E. coli DNA gyrase): 53.5 nM
remaining activity at 1 µM (E. coli topoisomerase IV): 103%
remaining activity at 10 µM (E. coli topoisomerase IV): 102%
MIC (A. baumannii ATCC 17978): ≥ 64 µg/mL
MIC (E. coli ATCC 25922): ≥ 64 µg/mL
MIC (E. faecalis ATCC 29212): 1 µg/mL (≈ 2.21 µM)
MIC [1]: ≥ 64 µg/mL
MIC (K. pneumoniae ATCC 10031): ≥ 64 µg/mL
MIC (P. aeruginosa ATCC 27853): ≥ 64 µg/mL
MIC (S. aureus ATCC 29213): ≥ 64 µg/mL
MIC [2]: ≥ 64 µg/mL

Cc1[nH]c(C(=O)Nc2ccc(-c3n[nH]c(=O)o3)cc2OCc2ccncc2)c(Cl)c1Cl [Example 30, 3,4-Dichloro-5-methyl-N-(4-(5-oxo-4,5-dihydro-1,3,4-oxadiazol-2-yl)-2-(pyridin-4-ylmethoxy)phenyl)-1H-pyrrole-2-carboxamide]
IC50 (E. coli DNA gyrase): 42.2 nM

Cc1[nH]c(C(=O)Nc2ccc(C(=O)NS(C)(=O)=O)cc2N2CCOCC2)c(Cl)c1Cl [Example 45, 3,4-Dichloro-5-methyl-N-(4-((methylsulfonyl)carbamoyl)-2-morpholinophenyl)-1H-pyrrole-2-carboxamide]
IC50 (E. coli DNA gyrase): 243 nM

Cc1[nH]c(C(=O)Nc2ccc(-c3n[nH]c(=O)o3)cc2N2CCNCC2)c(Cl)c1Cl.Cl [Example 41, 4-(2-(3,4-Dichloro-5-methyl-1H-pyrrole-2-carboxamido)-5-(5-oxo-4,5-dihydro-1,3,4-oxadiazol-2-yl)phenyl)piperazin-1-ium chloride]
IC50 (E. coli DNA gyrase): 17.9 nM
remaining activity at 1 µM (E. coli topoisomerase IV): 71%
remaining activity at 10 µM (E. coli topoisomerase IV): 48%
MIC (A. baumannii ATCC 17978): ≥ 64 µg/mL
MIC (E. coli ATCC 25922): ≥ 64 µg/mL
MIC (E. faecalis ATCC 29212): 0.5 µg/mL
MIC [1]: ≥ 64 µg/mL
MIC (K. pneumoniae ATCC 10031): 0.25 µg/mL
MIC (P. aeruginosa ATCC 27853): ≥ 64 µg/mL
MIC (S. aureus ATCC 29213): 2 µg/mL
MIC [2]: 4 µg/mL

Cc1[nH]c(C(=O)Nc2ccc(-c3n[nH]c(=O)o3)cc2N2CCOCC2)c(Cl)c1Cl [Example 42, 3,4-Dichloro-5-methyl-N-(2-morpholino-4-(5-oxo-4,5-dihydro-1,3,4-oxadiazol-2-yl)phenyl)-1H-pyrrole-2-carboxamide]
IC50 (E. coli DNA gyrase): 82.2 nM
remaining activity at 1 µM (E. coli topoisomerase IV): 66%
remaining activity at 10 µM (E. coli topoisomerase IV): 54%
MIC (A. baumannii ATCC 17978): ≥ 64 µg/mL
MIC (E. coli ATCC 25922): ≥ 64 µg/mL
MIC (E. faecalis ATCC 29212): 0.125 µg/mL (≈ 0.285 µM)
MIC [1]: ≥ 64 µg/mL
MIC (K. pneumoniae ATCC 10031): ≥ 64 µg/mL
MIC (P. aeruginosa ATCC 27853): ≥ 64 µg/mL
MIC (S. aureus ATCC 29213): 0.25 µg/mL (≈ 0.57 µM)
MIC [2]: 0.25 µg/mL (≈ 0.57 µM)

Source: patent publication US20250002455A1, “NEW N-PHENYLPYRROLAMIDE INHIBITORS OF DNA GYRASE AND TOPOISOMERASE IV WITH ANTIBACTERIAL ACTIVITY” (priority 2020, published 2025)
